Results on five substances are retold here after patent US8188059B2, “Compounds and methods for modulating expression of GCGR” (Isis Pharmaceuticals, Inc., priority 2006, dated 2012).

For one series, the system named is DGAT2 mRNA. The series is described as follows: Antisense inhibition of DGAT2 in A10 cells at 75 nM (Example 22, Table 81). In kind it is cell-based, rat. The conditions noted are these: approximately 24 hours. On the procedure: Short antisense compounds targeted to a DGAT2 nucleic acid were tested for their effects on DGAT2 mRNA in vitro. Cultured A10 cells in a 96-well plate were treated with 75 nM of short antisense compound. After a treatment period of approximately 24 hours, RNA was isolated from the cells and DGAT2 mRNA levels were measured by quantitative real-time PCR, as described herein. DGAT2 mRNA levels were adjusted according to total RNA content as measured by RIBOGREEN®. […]

Series [1] concerns rat DGAT2 mRNA. The series is described as follows: Dose-dependent inhibition of DGAT2 in A10 cells, 6.25-200 nM (Example 22, Table 82). The series is classed as cell-based. On the procedure:
Additional short antisense compounds targeted to DGAT2 mRNA were tested in vitro in a dose-response experiment. A10 cells were prepared as described above and treated with 6.25, 12.5, 25.0, 50.0, 100.0, and 200.0 nM short antisense compounds to determine if DGAT2 inhibition occurs in a dose-dependent manner. […] Results are presented as percent inhibition, relative to untreated control cells.

Series [2] has as its system rat DGAT2 mRNA. Kind of series: Dose-dependent inhibition of DGAT2 in A10 cells, 0.62-150 nM (Example 22, Table 83). The series is classed as cell-based. On the procedure: Additional short antisense compounds targeted to DGAT2 mRNA were tested in vitro. A10 cells were prepared as described above and treated with 0.62, 1.85, 5.56, 16.67, 50.0, and 150.0 nM short antisense compounds to determine if DGAT2 inhibition occurs in a dose-dependent manner. DGAT2 mRNA was measured using quantitative real-time PCR, as described herein. […] Results are presented as percent inhibition of rat DGAT2, relative to untreated control cells.

A further series concerns rat SGLT2 mRNA. The series is described as follows: Rat SGLT2 mRNA levels in kidney, 1-10-1 and 1-10-2 MOE gapmers, Sprague-Dawley rats (Example 13, Table 63). In kind it is in vivo. The text has this:
1-10-1 and 1-10-2 MOE gapmer antisense compounds, provided in Table 62, were designed to target different regions of the mouse or rat SGLT2 RNA. All short antisense compounds in Table 62 are chimeric oligonucleotides (“gapmers”) either 12 or 13 nucleotides in length, composed of a central “gap” segment consisting of ten 2′-deoxynucleotides, which are flanked on the 5′ side by a one-nucleoside “wing” and on the 3′ side by a two or one-nucleotide “wing”. […] All cytidine residues are 5-methylcytidines.
The short antisense compounds were analyzed for their effect on rat SGLT2 mRNA levels. Data are ranges taken from three experiments in which Male Sprague-Dawley rats (170-200 g) were dosed twice per week for three weeks with 450, 150 or 50 nmol/kg of either a 1-10-1 or 1-10-2 MOE gapmer given by intraperitoneal injection. Rats were sacrificed 48 hours following last administration and evaluated for SGLT2 mRNA levels in kidney. Target levels were determined by RT, real-time PCR as described by other examples herein. PCR results were normalized to an internal ISIS control.

Setting [3] is: 50 nmol/kg i.p. twice per week for three weeks.
[4] abbreviates: 150 nmol/kg i.p. twice per week for three weeks.
Setting [5] is: 450 nmol/kg i.p. twice per week for three weeks.

Strand notation (5' to 3'): a small letter for the sugar, then the base; units joined by * are phosphorothioate-linked, units joined directly phosphodiester-linked; [ ] holds rarer units or linkages, { } end groups; capitals alone tell only the bases. e = 2'-O-(2-methoxyethyl) (MOE); [5mC] = 5-methylcytosine; d = 2'-deoxy (DNA)

“372586 (antisense eG*eT*dT*d[5mC]*d[5mC]*dT*dG*dG*dT*dG*dG*dT*e[5mC]*eA) [compound 372586]”: the “DGAT2 mRNA, % Control” value in the series on DGAT2 mRNA was found to be 40%. The “percent inhibition of DGAT2” value in the series on rat DGAT2 mRNA [1] (6.25 nM) came to 19; in the series with rat DGAT2 mRNA [1] (12.5 nM) it was 0; in the series with rat DGAT2 mRNA [1] (50.0 nM), 22; in the series on rat DGAT2 mRNA [1] (100.0 nM), 45; in the series on rat DGAT2 mRNA [1] (200.0 nM), 77; in the series on rat DGAT2 mRNA [1] ([…]), 7. The “percent inhibition of rat DGAT2” value with rat DGAT2 mRNA [2] (0.62 nM) worked out at 0; in the series with rat DGAT2 mRNA [2] (1.85 nM), 0; with rat DGAT2 mRNA [2] (5.56 nM), 0; in the series with rat DGAT2 mRNA [2] (16.67 nM), 0; in the series with rat DGAT2 mRNA [2] (50 nM), 7; in the series with rat DGAT2 mRNA [2] (150 nM), 55.
For the substance “372602 (antisense e[5mC]*e[5mC]*dA*dG*dG*d[5mC]*dA*dT*dG*dG*dA*dG*e[5mC]*eT) [compound 372602]”, in the series with DGAT2 mRNA, the “DGAT2 mRNA, % Control” value came to 39%. The “percent inhibition of DGAT2” value in the series with rat DGAT2 mRNA [1] (6.25 nM) is on record as 0; in the series on rat DGAT2 mRNA [1] (12.5 nM), 0; in the series on rat DGAT2 mRNA [1] (50.0 nM), 18; in the series with rat DGAT2 mRNA [1] (100.0 nM), 47; with rat DGAT2 mRNA [1] (200.0 nM), 76; in the series on rat DGAT2 mRNA [1] ([…]) it was 0. Also, the “percent inhibition of rat DGAT2” value is given as 0 with rat DGAT2 mRNA [2] (0.62 nM); 0 with rat DGAT2 mRNA [2] (1.85 nM); 10 with rat DGAT2 mRNA [2] (5.56 nM); 0 with rat DGAT2 mRNA [2] (16.67 nM); 19 in the series on rat DGAT2 mRNA [2] (50 nM); 51 with rat DGAT2 mRNA [2] (150 nM).
On to “372618 (antisense eG*eT*dG*dG*dT*dA*d[5mC]*dA*dG*dG*dT*d[5mC]*eG*eA) [compound 372618]”, for which the “DGAT2 mRNA, % Control” value with DGAT2 mRNA was 29%. Besides, the “percent inhibition of DGAT2” value with rat DGAT2 mRNA [1] (6.25 nM) was 0; in the series with rat DGAT2 mRNA [1] (12.5 nM) it was 5; in the series on rat DGAT2 mRNA [1] (50.0 nM) it was 27; in the series on rat DGAT2 mRNA [1] (100.0 nM) it was 65; in the series with rat DGAT2 mRNA [1] (200.0 nM) it was 80; with rat DGAT2 mRNA [1] ([…]), 0. Moreover, the “percent inhibition of rat DGAT2” value in the series with rat DGAT2 mRNA [2] (0.62 nM) is given as 0; in the series with rat DGAT2 mRNA [2] (1.85 nM), 0; in the series on rat DGAT2 mRNA [2] (5.56 nM), 0; with rat DGAT2 mRNA [2] (16.67 nM), 0; with rat DGAT2 mRNA [2] (50 nM), 30; in the series on rat DGAT2 mRNA [2] (150 nM), 60.
Turning to “ISIS 382675 (antisense eT*dA*dG*d[5mC]*d[5mC]*dA*d[5mC]*d[5mC]*dA*dA*d[5mC]*eT*eG)”, the “% change in SGLT2 expression relative to saline” value in the series with rat SGLT2 mRNA (setting [3]) is recorded as −50%; with rat SGLT2 mRNA (setting [4]), −65%; in the series on rat SGLT2 mRNA (setting [5]) it was −80%.
On the same counts, the results for “ISIS 382677: SGLT2; GGCATGAGCTTCA 1-10-2 MOE (antisense eG*dG*d[5mC]*dA*dT*dG*dA*dG*d[5mC]*dT*dT*e[5mC]*eA)” are −40%, −60% and −75%.
